By mortality is commonly meant the share of the test organisms that died. Low values mean more survivors, high ones fewer survivors. By pest or weed control is commonly meant the degree to which the test organism was suppressed or injured, in per cent.

Holding throughout (type): in vivo
Test [1] relates to Nilaparvata lugens. Briefly: Insecticidal test on Nilaparvata lugens (rice sheaths soaked). The conditions noted are these: 144 h, 500 ppm solution, 3rd-instar larvae, 6 days after, 25° C.
In test [2] the test system is Bemisia argentifolii. Briefly: Insecticidal test on Bemisia argentifolii (kidney bean leaf spray). Particulars: 120 h, 500 ppm solution sprayed (2.5 mg/cm^2), adults on kidney bean leaves, 5 days after, 25° C. The method, then: In styrol cups having an inner diameter of 7 cm, wet filter paper was laid, and kidney bean leaves cut to 3 cm were laid on the paper. […] The leaves were dried in air, and adults of Bemisia argentifolii were released in the cups, and the cups were covered with lids and placed in an incubator at 25° C. 5 Days after, dead insects were counted, and the mortality was calculated by using the same equation as in Test Example 1. The test was carried out in duplicate.

In test [3] the test system is Myzus persicae. Briefly: Insecticidal test on Myzus persicae (cabbage leaf spray). The conditions noted are these: 144 h, 500 ppm solution sprayed (2.5 mg/cm^2), apterous adults on cabbage leaves, 6 days after, 25° C.
In test [4] the test system is Plutella xylostella. Briefly: Insecticidal test on Plutella xylostella (cabbage leaves soaked). The conditions noted are these: 144 h, 500 ppm solution, 3rd-instar larvae, 6 days after, 25° C.
For test [5], the system named is Nilaparvata lugens. Briefly: Systemic insecticidal test on Nilaparvata lugens (rice seedling root dip). The conditions noted are these: 20 ppm solution, rice seedling roots dipped 7 days, 3rd-instar larvae, 6 days after release, 25° C. The method, then:
7 Days after, the rice seedlings were picked and put in test tubes, and in each tube, five 3rd-instar larvae of Nilaparvata lugens were released, and the tubes were capped with sponge and placed in an incubator at 25° C. 6 Days after the release of the insects, dead insects were counted, and the mortality (%) (the number of dead insects÷the number of released insects×100) was calculated. The test was carried out in duplicate.

In test [6] the test system is Spodoptera litura. Briefly: Insecticidal test on Spodoptera litura (cabbage leaves soaked). The conditions noted are these: 144 h, 500 ppm solution, 3rd-instar larvae, 6 days after, 25° C.
Test [7] has as its system Plutella xylostella. Briefly: Soil irrigation test on Plutella xylostella. Particulars: 144 h, 500 ppm solution, 10 ml soil irrigation of cabbage seedlings, leaves picked 5 days after, 3rd-instar larvae, 6 days after. The method, then:
The soil around the bases of cabbage seedlings (at the 2.5-leaf stage) planted in plastic cups was irrigated with 10 ml of the solutions. After the irrigation, the cabbage seedlings were placed in a greenhouse. 5 Days after the irrigation, leaves of cabbage were picked and placed in dishes. In each dish, five 3rd-instar larvae of Plutella xylostella were released, and the dishes were covered with lids and placed in an incubator at 25° C. 6 Days after, dead insects in the dishes were counted, and the mortality was calculated by using the same equation as in Test Example 1. The test was carried out in duplicate.

The test system of test [8] is Ctenocephalides felis. Briefly: Test on the effect on Ctenocephalides felis (thin film in glass container). The conditions noted are these: 96 h, application dose 10 μg/cm^2, adults, 4 days after release, 25° C.
In test [9] the test system is Rhipicephalus sanguineus. Briefly: Test on the effect on Rhipicephalus sanguineus (thin film in glass container). Particulars: 96 h, application dose 10 μg/cm^2, protonymphs, 4 days after release, 25° C. The method, then:
350 μl of the solutions were applied to the bottoms and the side walls of glass containers with an inner wall surface area of 35 cm^2, and acetone was volatilized to prepare thin films of the compounds on the inner walls of the glass containers. Since the inner wall surface area of each glass container was 35 cm^2, the application dose was 10 μg/cm^2.
To each glass container, five protonymphs (male and female) of Rhipiceohalus sanguineus were released, and the containers were covered with lids and placed in an incubator at 25° C. 4 Days after the release of the ticks, dead ticks were counted, and the mortality was calculated by using the same equation as in Test Example 1.

For test [10], the system named is Frankliniella occidentalis. Briefly: Insecticidal activity on Frankliniella occidentalis (kidney bean leaf spray). Particulars: 48 h, 500 ppm solution sprayed (2.5 mg/cm^2), larvae on kidney bean leaves, 2 days after. How it is done: In styrol cups having an inner diameter of 7 cm, wet filter paper was laid, kidney bean leaves cut into a 3 cm square were laid on the paper, and each leaf was inoculated with 20 larvae of Frankliniella occidentalis. […] 2.5 ml of the solutions were sprayed from a rotary spray tower into the styrol cups (2.5 mg/cm^2).
2 Days after, dead insects were counted, and insect damage on kidney bean leaves was examined. The mortality was calculated by using the same equation as in Test Example 1.
The insect damage degree was evaluated as follows. 1: 0 to 20% insect damage, 2: 20 to 50% insect damage, 3: 50 to 70% insect damage, and 4: 70% or higher insect damge. The test was carried out in duplicate.

On to `CCS(=O)(=O)c1c(-c2nc3cc(C(F)(F)F)c[n+]([O-])c3n2C)nc2cc(C(F)(F)F)ccn12` [1-14-001a, 2-[3-(ethylsulfonyl)-7-(trifluoromethyl)imidazo[1,2-a]pyridin-2-yl]-3-methyl-6-(trifluoromethyl)-3H-imidazo[4,5-b]pyridine 4-oxide], for which the mortality at 500 ppm in test [1], in test [2], in test [3], in test [4] and in [6] was at least 90% in each case. The same compound yielded a mortality at 20 ppm in test [5] of at least 90%. Also, the pest or weed control at 500 ppm in test [7] was at least 90%. In [8], this compound yielded a mortality at 10 µg/cm2 of at least 50%.

For the compound `CCS(=O)(=O)c1c(-c2cn3cnc(C(F)(F)F)cc3n2)nc2cc(C(F)(F)F)ccn12` [1-3-001a, 2-[3-(ethylsulfonyl)-7-(trifluoromethyl)imidazo[1,2-a]pyridin-2-yl]-7-(trifluoromethyl)imidazo[1,2-c]pyrimidine], the mortality at 500 ppm in test [1], in test [2], in test [3], in [4] and in test [6] was at least 90% in each case. In test [5], this compound gave a mortality at 20 ppm of at least 90%. In addition, the pest or weed control at 500 ppm in [7] is at least 90%. This compound also had a mortality at 10 µg/cm2 in [8] of at least 50%.

Regarding `CCS(=O)(=O)c1c(-c2nc3cc(C(F)(F)F)cnc3n2C)sc2ccc(C(F)(F)F)cc12` [3-1-002a, 2-[3-(ethylsulfonyl)-5-(trifluoromethyl)benzo[b]thiophen-2-yl]-3-methyl-6-(trifluoromethyl)-3H-imidazo[4,5-b]pyridine], the mortality at 500 ppm was at least 90% in test [1]; at least 90% in test [2]; at least 90% in test [3]; at least 90% in test [4]; at least 90% in [6]; at least 50% in test [10]. The mortality at 10 µg/cm2 in [9] and in test [8] was at least 50% each time.
